Where a SMILES comes first, the peptide text is derived from it.
Experiments:
Format in all cases: cell-based
[1] = tested on: Bacillus subtilis NRRL B-237; test: Inhibition zone assay; conditions: I and B 10 ul, L 5 ug
[2] = tested on: Pseudomonas aureofaciens CCEB 518; test: Inhibition zone assay; set-up: key: --: "-" means that no inhibition has been found; conditions: I and B 10 ul, L 5 ug
[3] = tested on: Streptococcus pyogenes NCTC 8193; test: Inhibition zone assay; set-up: key: --: "-" means that no inhibition has been found; conditions: I 10 ul
[4] = tested on: Agrobacterium tumefaciens DSM 3129; test: Inhibition zone assay; conditions: I and B 10 ul, L 5 ug
[5] = tested on: Enterobacter cloacae LMG 2783; test: Inhibition zone assay; set-up: key: --: "-" means that no inhibition has been found; conditions: I and B 10 ul
Bacillus cereus LMG 2098 = test: Inhibition zone assay; set-up: key: --: "-" means that no inhibition has been found
[6] = tested on: Rhodococcus equi ATCC 25729; test: Inhibition zone assay; set-up: key: --: "-" means that no inhibition has been found; conditions: I and B 10 ul, L 5 ug
[7] = tested on: Streptococcus B CDC 55 460; test: Inhibition zone assay; set-up: key: --: "-" means that no inhibition has been found; conditions: I 10 ul
[8] = tested on: Agrobacterium rhizogenes ATCC 11325; test: Inhibition zone assay; set-up: key: --: "-" means that no inhibition has been found; conditions: I and B 10 ul, L 5 ug
[9] = tested on: Xanthomonas campestris pv. campestris A 902; test: Inhibition zone assay; set-up: key: --: "-" means that no inhibition has been found; conditions: * synthetic ApidIa and heattreated immune lymph instead of Bee6 and native immune lymph
[10] = tested on: Bordetella bronchiseptica ATCC 19395; test: Inhibition zone assay; set-up: key: --: "-" means that no inhibition has been found; conditions: I and B 10 ul, L 5 ug
[11] = tested on: Bacillus megaterium QMB 1551; test: Inhibition zone assay; set-up: key: --: "-" means that no inhibition has been found; conditions: I and B 10 ul, L 5 ug
[12] = tested on: Yersinia enterocolitica PGS C-1106; test: Inhibition zone assay; set-up: key: --: "-" means that no inhibition has been found; conditions: * synthetic ApidIa and heattreated immune lymph instead of Bee6 and native immune lymph
Salmonella Newport CD 94 = test: Inhibition zone assay; set-up: key: --: "-" means that no inhibition has been found; conditions: I 10 ul
[13] = tested on: Flavobacterium capsulatum ATCC 14666; test: Inhibition zone assay; set-up: key: --: "-" means that no inhibition has been found
[14] = tested on: Erwinia carotovora var. carotovora NCPPB 312; test: Inhibition zone assay; set-up: key: --: "-" means that no inhibition has been found
[15] = tested on: Listeria monocytogenes B5; test: Inhibition zone assay; set-up: key: --: "-" means that no inhibition has been found; conditions: L 5 ug
[16] = tested on: Acinetobacter calcoaceticus MON 108; test: Inhibition zone assay; set-up: key: --: "-" means that no inhibition has been found
[17] = tested on: Haemophilus influenzae NCTC 8465; test: Inhibition zone assay; set-up: key: --: "-" means that no inhibition has been found; conditions: I 10 ul
[18] = tested on: Staphylococcus aureus STA 1; test: Inhibition zone assay; set-up: key: --: "-" means that no inhibition has been found; conditions: I 10 ul
[19] = tested on: Pseudomonas acidovorans CuETM 83-109; test: Inhibition zone assay; set-up: key: --: "-" means that no inhibition has been found; conditions: I and B 10 ul, L 5 ug
[20] = tested on: Rhizobium phaseoli CIAT 899; test: Inhibition zone assay; set-up: key: --: "-" means that no inhibition has been found; conditions: I and B 10 ul, L 5 ug
[21] = tested on: Pseudomonas syringae pv. tabaci NCPPB 1237; test: Inhibition zone assay; set-up: key: --: "-" means that no inhibition has been found; conditions: * synthetic ApidIa and heattreated immune lymph instead of Bee6 and native immune lymph
[22] = tested on: Enterobacter agglomerans Gilardi 1081; test: Inhibition zone assay; set-up: key: --: "-" means that no inhibition has been found; conditions: I and B 10 ul, L 5 ug
[23] = tested on: Rhodococcus terrae ATCC 25594; test: Inhibition zone assay; set-up: key: --: "-" means that no inhibition has been found; conditions: I and B 10 ul
[24] = tested on: Neisseria mucosa ATCC 25999; test: Inhibition zone assay; set-up: key: --: "-" means that no inhibition has been found; conditions: I 10 ul
[25] = tested on: Serratia liquefaciens DSM 30125; test: Inhibition zone assay; set-up: key: --: "-" means that no inhibition has been found; conditions: I 10 ul, L 5 ug
ATCC 17991 = test: Inhibition zone assay; set-up: key: --: "-" means that no inhibition has been found; conditions: Salmonella marcescens ATCC 17991
[26] = tested on: Salmonella Montevideo 80/141; test: Inhibition zone assay; set-up: key: --: "-" means that no inhibition has been found; conditions: I and B 10 ul
[27] = tested on: Xanthomonas campestris pv. vesicatoria XV82-4; test: Inhibition zone assay; set-up: key: --: "-" means that no inhibition has been found; conditions: I and B 10 ul, L 5 ug
[28] = tested on: Serratia marcescens ATCC 17991; test: Inhibition zone assay; set-up: key: --: "-" means that no inhibition has been found
[29] = tested on: Staphylococcus hominis STH B3; test: Inhibition zone assay; set-up: key: --: "-" means that no inhibition has been found; conditions: L 5 ug
[30] = tested on: Pseudomonas syringae pv. maculicola NCPPB 1776; test: Inhibition zone assay; set-up: key: --: "-" means that no inhibition has been found; conditions: * synthetic ApidIa and heattreated immune lymph instead of Bee6 and native immune lymph
S. cerevisiae = test: Growth-inhibition zone assay, first screening
Protocol: (§1) Whole lymph or purified components, resuspended in PBS to a final volume equal to the starting material (heated lymph), was applied in 3 mm wells on agar plates seeded with the test organisms. Antibacterial activity was determined by measuring the growth-inhibition zones (in mm).

D. hansenii = test: Growth-inhibition zone assay, first screening
Protocol: as §1

Klebsiella oxytoca KO2 = test: Inhibition zone assay; set-up: key: --: "-" means that no inhibition has been found

CC[C@H](C)[C@H](NC(=O)[C@H](CCCCN)NC(=O)[C@@H]1CCCN1C(=O)[C@H](CC(N)=O)NC(=O)[C@H](Cc1ccccc1)NC(=O)[C@@H]1CCCN1C(=O)CNC(=O)[C@H](CCC(N)=O)NC(=O)CNC(=O)[C@@H]1CCCN1C(=O)[C@H](Cc1ccccc1)NC(=O)[C@@H](NC(=O)[C@@H]1CCCN1C(=O)[C@H](Cc1ccccc1)NC(=O)[C@@H]1CCCN1C(=O)[C@H](CCCNC(=N)N)NC(=O)[C@H](CCCNC(=N)N)NC(=O)CNC(=O)[C@@H]1CCCN1C(=O)[C@H](CCC(N)=O)NC(=O)[C@@H]1CCCN1C(=O)[C@@H](NC(=O)[C@H](CC(N)=O)NC(=O)[C@@H]1CCCN1C(=O)[C@H](CC(C)C)NC(=O)[C@@H]1CCCN1C(=O)[C@@H](NC(=O)[C@@H](N)Cc1ccc(O)cc1)C(C)C)C(C)C)[C@@H](C)O)C(=O)N[C@@H](CCCCN)C(=O)N[C@@H](Cc1c[nH]c2ccccc12)C(=O)N1CCC[C@H]1C(=O)N[C@@H](CCC(N)=O)C(=O)NCC(=O)N[C@@H](Cc1ccc(O)cc1)C(=O)O [bee 9] (H-YVPLPNVPQPGRRPFPTFPGQGPFNPKIKWPQGY-OH)
diameter of growth-inhibition zone [1]: 4 mm
diameter of growth-inhibition zone [2]: --
diameter of growth-inhibition zone [3]: --
diameter of growth-inhibition zone [4]: 4 mm
diameter of growth-inhibition zone [5]: --
diameter of growth-inhibition zone (Bacillus cereus LMG 2098): --
diameter of growth-inhibition zone [6]: --
diameter of growth-inhibition zone [7]: --
diameter of growth-inhibition zone [8]: --
diameter of growth-inhibition zone [9]: --
diameter of growth-inhibition zone [10]: --
diameter of growth-inhibition zone [11]: --
diameter of growth-inhibition zone [12]: --
diameter of growth-inhibition zone (Salmonella Newport CD 94): --
diameter of growth-inhibition zone [13]: --
diameter of growth-inhibition zone [14]: --
diameter of growth-inhibition zone [15]: --
diameter of growth-inhibition zone [16]: --
diameter of growth-inhibition zone [17]: --
diameter of growth-inhibition zone [18]: --
diameter of growth-inhibition zone [19]: --
diameter of growth-inhibition zone [20]: --
diameter of growth-inhibition zone [21]: --
diameter of growth-inhibition zone [22]: --
diameter of growth-inhibition zone [23]: --
diameter of growth-inhibition zone [24]: --
diameter of growth-inhibition zone [25]: --
diameter of growth-inhibition zone (ATCC 17991): --
diameter of growth-inhibition zone [26]: --
diameter of growth-inhibition zone [27]: --
diameter of growth-inhibition zone [28]: --
diameter of growth-inhibition zone [29]: --
diameter of growth-inhibition zone [30]: --
susceptibility of eucaryote strain (S. cerevisiae): resistant
susceptibility of eucaryote strain (D. hansenii): resistant
diameter of growth-inhibition zone (Klebsiella oxytoca KO2): --

Reference: patent publication US5300629A, “Bactericidal and/or bacteriostatic peptides isolated from hemolymph of honeybees” (Plant Genetic Systems, N.V., priority 1987, dated 1994)
